Measurements: US8470772B2, “Leptin agonist and methods of use” (Temple University—Of The Commonwealth System of Higher …, priority 2008, dated 2013)
Starred links: 1 amine or outer side, 2 acyl side, 3 side chain; linkers in the order of their positions; H or OH if unused. Non-standard residues stand in square brackets, D forms with d. No end group written: not given here. *: point of attachment. βGlcAc4 = CC(=O)OC[C@H]1O[C@@H](*)[C@H](OC(C)=O)[C@@H](OC(C)=O)[C@@H]1OC(C)=O; Tyr(Me) = O-methyl Tyr, COc1ccc(C[C@H](N[*:1])C(=O)[*:2])cc1; Tyr(3,5-I2) = N[C@@H](Cc1cc(I)c(O)c(I)c1)C(=O)O; dGla = N[C@H](CC(C(=O)O)C(=O)O)C(=O)O; Dap = NC[C@H](N)C(=O)O; βAla = NCCC(=O)O

Legend:
MCF-7 cells = assay: MCF-7 cell stimulation (cell growth) assay, cell counts by trypan blue exclusion; assay type: cell-based, human; settings: for Relative stimulation (%) of MCF-7 cells, No leptin added: no exogenous leptin; for antagonistic activity on leptin-induced MCF-7 cell proliferation: in the presence of exogenous leptin; for agonistic activity on MCF-7 cells: without leptin; for MCF-7 cell count increase: no leptin; for reversal of leptin-induced cell stimulation: leptin present
Text: (§1) For the evaluation of the biological activity of the synthesized leptin Site III peptide fragments, human cell lines were selected in which the ObR expression level is known. Two ObR-positive human cell models were used: MCF-7 breast cancer cells and DU-45 prostate cancer cells. Both cell lines express ObR, and leptin and leptin analogues stimulate their growth (C. Garofalo, et al., Clin. Cancer Res., 2004, 10, 6466-6475; C. Garofalo, et al., Clin. Cancer Res., 2006, 12, 1447-1453). Normal mammary epithelial MCF-10 cells lacking ObR were used as a negative control (X. Hu, et al., J. Natl. Cancer Inst., 2002, 94, 1704-1711).
Biological activity of the Site III peptides was assayed as follows. MCF-7 cells were stimulated with 6 nM full-sized leptin. The smaller leptin fragments and analogs were added to the cell culture at a concentration of 10 nM, 100 nM or 1 μM. Leptin at […] concentration stimulated MCF-7 cell growth by approximately 40%, in line with previous observations (C. Garofalo, et al., Clin. Cancer Res., 2004, 10, 6466-6475). All Site III peptides bound to the extracellular domain of ObR as documented by dot-blot or Western-blot analysis. […] In fact, it reversed leptin induced stimulation of MCF-7 cells at as low as 10 nM peptide concentration, with an additional 50% reduction in cell counts at 1 μM. When the assay was run at a more reliably measurable 1 μM peptide concentration, a consistent 6% decrease in cell numbers could be observed compared to the leptin only samples. In summary, in the presence of exogenously added full-sized leptin these assays verified the strong antagonist activity of the Site III Ala,Ala mutant.
(§2) The cell stimulation activity of the Site III peptides was assayed as follows. Human leptin was purchased from R&D Systems and used at a concentration of 100 ng/mL (approximately 6 nM). MCF-7 and DU-45 cells naturally expressing ObR were grown in a standard medium DMEM:F12 plus 5% fetal bovine serum. MCF-10 was grown in serum-free mammalian epithelial growth medium supplemented with 100 ng/mL cholera toxin. Seventy percent confluent cultures were synchronized in serum-free medium (DMEM plus 10 μM FeSO4, plus 0.5% albumin) for 24 h and then treated with leptin and/or peptides (different doses) for 5 days. Cell counts before and after treatment were determined by counting the cells using trypan blue exclusion. All assays were conducted in triplicate and repeated at least twice.

MCF-10 cells = assay: MCF-10 control cell proliferation assay (cells lacking ObR); assay type: cell-based, human; settings: for effect on the proliferation of MCF-10 cells: control cell line lacking ObR
Text: as §1, §2

DU-45 cells = assay: DU-45 cell stimulation (proliferation) assay; assay type: cell-based, human
Text: as §1
as §2, with “All assays were conducted in triplicate and repeated at least twice.” left out

ObR extracellular domain = target: T1, ObR extracellular domain (Homo sapiens, UniProt P48357); assay: Dot-blot and ELISA-type solid-phase binding assay; settings: dot-blot, Western-blot or ELISA; 10 and 20 μg peptide load in ELISA
T1 construct: human IgG Fc-conjugated ObR extracellular domain (R&D Systems); purchased R&D Systems
T1 sequence (P48357 22-839 limits assumed): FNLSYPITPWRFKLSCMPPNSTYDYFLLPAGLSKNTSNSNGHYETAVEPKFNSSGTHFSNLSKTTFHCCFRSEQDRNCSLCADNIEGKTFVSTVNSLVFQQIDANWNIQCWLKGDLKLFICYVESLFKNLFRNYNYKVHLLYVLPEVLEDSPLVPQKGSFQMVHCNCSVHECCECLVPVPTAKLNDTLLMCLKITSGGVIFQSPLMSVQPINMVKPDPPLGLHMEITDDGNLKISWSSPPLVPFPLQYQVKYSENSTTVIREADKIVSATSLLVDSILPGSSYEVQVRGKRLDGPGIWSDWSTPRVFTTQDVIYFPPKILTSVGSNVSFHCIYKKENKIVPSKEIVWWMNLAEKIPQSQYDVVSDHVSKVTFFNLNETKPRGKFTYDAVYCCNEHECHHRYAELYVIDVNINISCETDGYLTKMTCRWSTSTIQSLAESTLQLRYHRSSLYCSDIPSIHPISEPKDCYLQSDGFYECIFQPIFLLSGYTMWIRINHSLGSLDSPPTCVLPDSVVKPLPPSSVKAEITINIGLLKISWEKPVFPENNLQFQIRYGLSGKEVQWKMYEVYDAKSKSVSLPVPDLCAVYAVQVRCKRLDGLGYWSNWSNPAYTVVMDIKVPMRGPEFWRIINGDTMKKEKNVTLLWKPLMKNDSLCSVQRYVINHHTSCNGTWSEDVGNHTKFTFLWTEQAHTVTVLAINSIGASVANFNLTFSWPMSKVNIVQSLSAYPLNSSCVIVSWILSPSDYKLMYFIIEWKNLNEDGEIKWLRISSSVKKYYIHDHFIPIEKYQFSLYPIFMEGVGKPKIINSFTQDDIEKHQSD
Method: For dot-blot and ELISA assays, the leptin fragments were dissolved in electroblot transfer buffer (25 mM Tris and […] buffer containing 20% methanol) and were applied to either a nitrocellulose membrane or dried upon ELISA plates (Otvos, L., Jr., and Szendrei, G. I. (1996) Enzyme-linked immunosorbent assay of peptides. In: Neuropeptide Protocols (G. B. Irvine and C. H. Williams, eds.). Humana Press, Totowa, N.J., pp. 269-275). The solid surfaces were blocked with 5% BSA in a PBS-0.5% Tween 20 buffer (PBST) for 3 hours at room temperature and were subsequently incubated with 10 μg/mL solution of human IgG Fc-conjugated ObR extracellular domain (R&D Systems) dissolved in Tris-buffered saline-0.1% Tween 20 buffer (TBST) containing 1% bovine serum albumin (BSA) for 1 hour. A monoclonal goat antibody (Santa Cruz Biotechnology), specific for the N-terminus of human ObR, was added to the assay mixture, followed by addition of a horseradish peroxidase(HRP)-conjugated anti-goat IgG donkey antibody for the dot-blot assay, and HRP-conjugated anti-goat Fc mouse antibody for ELISA assay (used at a 1:15,000 dilution in PBST and 1% BSA). Between reagents, the solid surfaces were washed extensively with PBST. After washing with PBST, the membrane was treated with a chemiluminescence luminol oxidizer (NEN) for 1 min. The resultant chemiluminescence was exposed to a X-Omat blue XB-1 film (Kodak) for 10 seconds, and the exposed film was developed. The ELISA was developed using an HRP ELISA kit including tetramethylbenzidine as a substrate and sulfuric acid as a stop solution. Optical absorbance values were read at 490 nm using a microplate reader.

[1] = test system: astrocytes, brain capillary endothelial cells; assay: In vitro model of blood-brain-barrier penetration (Transwell cell layers); assay type: in vitro ADME, human; settings: 0.1 mM peptide in upper compartment
Text: To confirm the ability of the E1 peptides to cross the blood-brain barrier, penetration of the protected (E1Ac) and free (E1Free) glycopeptides across confluent layers of astrocytes, brain endothelial cells, or a double layer of these two cell types was examined, in comparison with the Site III Ala,Ala non-glycosylated analog.
A confluent monolayer of human astrocytes or brain capillary endothelial cells, or a dual layer of both cell types (astrocytes first, followed by endothelial cells) were grown at 37° C. on polycarbonate filters (Costar, Transwell, 0.4 μm) that were pretreated with collagen. Under these conditions, the endothelial cells retain the characteristics of the blood-brain-barrier, which include complex tight junctions, low rates of pinocytosis and low enzyme levels (S. Lundquist, et al., Pharm. Res., 2002, 19, 976-981). A 0.1 mM solution of each of E1Ac, E1Free or Site III Ala,Ala was added to the upper compartment of the Transwell plates. The plates were then placed back in the incubator and samples were taken from the bottom compartments at 0, 5, 10, 30, and 120 minute intervals. The identity and quantity of peptides that had penetrated through the cell layers were subsequently analyzed by RP-HPLC and MALDI-MS.

Tyr(Me)-Ser-Thr-Glu-Val-Val-βAla-Leu-Ser-Arg-Leu ([Tyr(Me)]STEVV[βAla]LSRL-NH2) [A11]
Relative stimulation (%) of MCF-7 cells, No leptin added (MCF-7 cells; 1 μM peptide): +19% | antagonistic activity on leptin-induced MCF-7 cell proliferation (MCF-7 cells): basically inactive

SGYSTEVVALSRLQGS [Site III 117-132]
effect on the proliferation of MCF-10 cells (MCF-10 cells; listed as Site III peptide): did not demonstrate a major effect | effect on the proliferation of MCF-10 cells (MCF-10 cells; listed as site III fragment): no effect | effect on the proliferation of DU-45 cells (DU-45 cells): no effect | reduction in leptin-induced cell growth (MCF-7 cells; 1 μM peptide, in the presence of 10 nM leptin): 21% | agonistic activity on MCF-7 cells (MCF-7 cells): did not noticeably influence the cell growth

Tyr(I2)-Serβ(GlcAc4)-Thr-Glu-Val-Val-Ala-Leu-Ser-Arg-Leu-Dap(Ac) ([Tyr(3,5-I2)]S(βGlcAc4)TEVVALSRL[Dap](Ac)-NH2) [E1Ac]
activity on MCF-10 normal mammary epithelial cells (MCF-10 cells; 100 nM and 1000 nM peptide): inactive | binding to the extracellular domain of ObR (ObR extracellular domain): bound | MCF-7 cell count increase (MCF-7 cells; 100 nM peptide): 54% | further increase of leptin-induced cell stimulation (MCF-7 cells; 1000 nM peptide, in the presence of 6 nM leptin): 17% | MCF-7 cell count increase (MCF-7 cells; 1000 nM peptide): 101% | overall agonist character on cells expressing ObR (MCF-7 cells; in the presence and absence of leptin): full agonists

Leptin: Human leptin purchased from R&D Systems; full-length sequence SEQ ID NO:1
stimulation of MCF-7 cell growth (MCF-7 cells; leptin at 10 nM): approximately 40%

pyrrhocoricin: negative control antibacterial peptide with Pro-Arg-Pro repeats, equal in size with the leptin fragments (VDKGSYLPRPTPPRPIYNRN) [reference compound]
binding to the extracellular domain of ObR (ObR extracellular domain): did not bind

Gly-Tyr(I2)-Ser-Thr-D-Gla-Val-Val-D-Ala-Leu-Ser-Arg-Leu [F2]
reversal of leptin-induced cell stimulation (MCF-7 cells; 1 μM peptide): 15% | Relative stimulation (%) of MCF-7 cells, With 10 nM leptin (MCF-7 cells; 1 μM peptide, with 10 nM leptin): −15% | antagonistic activity on leptin-induced MCF-7 cell proliferation (MCF-7 cells): antagonists | agonistic activity on MCF-7 cells (MCF-7 cells): agonists

Tyr(Me)-Ser-Thr-D-Gla-Val-Val-D-Ala-Leu-Ser-Arg-Leu ([Tyr(Me)]ST[dGla]VV[dA]LSRL-NH2) [D12]
reversal of leptin-induced cell stimulation (MCF-7 cells; 1 μM peptide): 43% | antagonistic activity on leptin-induced MCF-7 cell proliferation (MCF-7 cells): antagonists | agonistic activity on MCF-7 cells (MCF-7 cells): agonists

Gly-Tyr(I2)-Ser-Thr-Glu-Val-Va1-βAla-Leu-Ser-Arg-Leu (G[Tyr(3,5-I2)]STEVV[βAla]LSRL-NH2) [A4]
Relative stimulation (%) of MCF-7 cells, No leptin added (MCF-7 cells; 1 μM peptide): +102%

SGYAAEVVALSRLQGS-NH2 [Site III Ala,Ala, Ser-Gly-Tyr-Ala-Ala-Glu-Val-Val-Ala-Leu-Ser-Arg-Leu-Gln-Gly-Ser]
earliest time point at which peptide was detected in the bottom compartment [1]: 30 min
